Measurements reported in patent publication US9200005B2, “Inhibitor compounds of phosphodiesterase type 10A” (AbbVie Deutschland GmbH & Co. KG, priority 2013, dated 2015).

Experiments:
PDE10A = PDE10A (UniProt Q9Y233); assay: Measurement of PDE activity (HTRF cAMP kit, recombinant PDE10A); type: biochemical, human, rat and mouse; details: substrate 20 nM, 60 minutes at 29° C.
Description: a) Measurement of PDE Activity
The recombinant PDE proteins are used in in vitro enzymatic reaction for measurement of PDE activity. These recombinant proteins, including PDE10A (human, rat and mouse PDE10) and isoforms of PDEs 1, 3, 4, and 5, were purchased from commercial vendor BPS Bioscience. The enzymatic activity of PDEs was determined by cAMP measurement kit from CisBio (IBA) using HTRF technology.
The PDE enzymatic reaction was carried out in assay buffer (20 mM Tris-HCl pH 7.5, 10 mM MgCl2, 0.1% bovine serum albumin) containing enzyme and substrate. […] The substrate cyclic nucleotide (cAMP or cGMP) concentration used in the assay was 20 nM for PDE10, and 100 nM for other PDEs. The inhibitory effect of compound was determined by incubating various concentration of inhibitor in the enzymatic assay. […] Next, the compound at varying concentration was mixed with PDE enzyme. The reaction was initiated by addition of cyclic nucleotide substrate, and incubated for 60 minutes at 29° C. The reaction was stopped by addition of lysis buffer from the assay kit. The cAMP-d2 and anti-cAMP cryptate in the lysis buffer detected the level of cAMP left from the PDE hydrolysis reaction. […] Thus, IC50 value of inhibitor can be obtained by plotting inhibitor concentration against PDE activity at that concentration.

[1] = Determination of the microsomal half-life / microsomal clearance, rat liver microsomes; type: in vitro ADME; details: 0.5 μM test substance, 0.25 mg of microsomal protein/mL, NADPH, 37° C.
Summary of the method: (§1)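 Compound (0.5 μM) was preincubated 5 min at 37 °C with rat or human liver microsomes (0.25 mg protein/mL) in 0.05 M phosphate pH 7.4, and NADPH (1 mg/mL) was then added. Samples taken at 0-30 min and quenched with acetonitrile were analysed by MS/MS. T½ was derived assuming first-order decay, and clearance […] was calculated from T½ and protein content.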

[2] = Determination of the microsomal half-life / microsomal clearance, human liver microsomes; type: in vitro ADME; details: 0.5 μM test substance, 0.25 mg of microsomal protein/mL, NADPH, 37° C.
Summary of the method: as §1

Question: What does the source list for `Cn1nc(OCc2cccc(C#N)c2)c2scc(-c3ccncc3)c2c1=O.O=C(O)C(F)(F)F` [Example 59, 3-({[5-methyl-4-oxo-3-(pyridin-4-yl)-4,5-dihydrothieno[2,3-d]pyridazin-7-yl]oxy}methyl)benzonitrile trifluoroacetate]?
Answer: IC50 (PDE10A): < 100 nM; Rat mCl [1]: ++ (++: <100 μl min^−1 mg^−1); Human mCl [2]: ++ (++: <100 μl min^−1 mg^−1)

Question: For `Cn1nc(-c2ccc(C#N)cc2)c2scc(-c3ccncc3)c2c1=O` [Example 95, 4-[5-methyl-4-oxo-3-(pyridin-4-yl)-4,5-dihydrothieno[2,3-d]pyridazin-7-yl]benzonitrile], which IC50 (PDE10A) is on record?
Answer: < 100 nM

Question: And the “Rat mCl” value [1]?
Answer: ++ (++: <100 μl min^−1 mg^−1)

Question: What about the “Human mCl” value [2] of the same compound?
Answer: ++ (++: <100 μl min^−1 mg^−1)

Question: What does the source list for `Cn1nc(OCc2cccc(C(N)=O)c2)c2scc(-c3ccncc3)c2c1=O.O=C(O)C(F)(F)F` [Example 67, 3-({[5-methyl-4-oxo-3-(pyridin-4-yl)-4,5-dihydrothieno[2,3-d]pyridazin-7-yl]oxy}methyl)benzamide trifluoroacetate]?
Answer: IC50 (PDE10A): < 100 nM; Rat mCl [1]: ++ (++: <100 μl min^−1 mg^−1); Human mCl [2]: ++ (++: <100 μl min^−1 mg^−1)

Question: For `CC(C)Oc1cccc(COc2nn(C)c(=O)c3c(-c4ccncc4)csc23)c1` [Example 73, 5-methyl-7-{[3-(propan-2-yloxy)benzyl]oxy}-3-(pyridin-4-yl)thieno[2,3-d]pyridazin-4(5H)-one], which IC50 (PDE10A) is on record?
Answer: 200 to 500 nM

Question: What about the “Rat mCl” value [1] of the same compound?
Answer: ++ (++: <100 μl min^−1 mg^−1)

Question: What about the “Human mCl” value [2] of the same compound?
Answer: ++ (++: <100 μl min^−1 mg^−1)

Question: For `Cn1nc(-c2ccc3c(c2)OCO3)c2scc(-c3ccncc3)c2c1=O` [Example 124, 7-(1,3-benzodioxol-5-yl)-5-methyl-3-(pyridin-4-yl)thieno[2,3-d]pyridazin-4(5H)-one], which IC50 (PDE10A) is on record?
Answer: 200 to 500 nM

Question: And the “Rat mCl” value [1]?
Answer: + (+: 100-220 μl min^−1 mg^−1)

Question: What about the “Human mCl” value [2] of the same compound?
Answer: + (+: 100-220 μl min^−1 mg^−1)

Question: What does the source list for `COCCn1cc(-c2nn(C)c(=O)c3c(-c4ccncc4)csc23)cn1.O=C(O)C(F)(F)F.O=C(O)C(F)(F)F` [Example 99, 7-[1-(2-methoxyethyl)-1H-pyrazol-4-yl]-5-methyl-3-(pyridin-4-yl)thieno[2,3-d]pyridazin-4(5H)-one bis(trifluoroacetate)]?
Answer: IC50 (PDE10A): < 100 nM; Rat mCl [1]: ++ (++: <100 μl min^−1 mg^−1); Human mCl [2]: ++ (++: <100 μl min^−1 mg^−1)

Question: What does the source list for `COc1cccc(Oc2nn(C)c(=O)c3c(-c4ccncc4)csc23)c1` [Example 85, 7-(3-methoxyphenoxy)-5-methyl-3-(pyridin-4-yl)thieno[2,3-d]pyridazin-4(5H)-one]?
Answer: IC50 (PDE10A): 100 to 200 nM; Rat mCl [1]: ++ (++: <100 μl min^−1 mg^−1); Human mCl [2]: ++ (++: <100 μl min^−1 mg^−1)

Question: With `Cn1nc(NCc2ccccc2)c2scc(-c3ccncc3)c2c1=O.O=C(O)C(F)(F)F.O=C(O)C(F)(F)F` [Example 50, 7-(benzylamino)-5-methyl-3-(pyridin-4-yl)thieno[2,3-d]pyridazin-4(5H)-one bis(trifluoroacetate)] as the compound, how does the IC50 (PDE10A) read?
Answer: 100 to 200 nM

Question: What about the “Rat mCl” value [1] of the same compound?
Answer: ++ (++: <100 μl min^−1 mg^−1)

Question: And the “Human mCl” value [2]?
Answer: ++ (++: <100 μl min^−1 mg^−1)

Question: Which IC50 (PDE10A) does the source give for `Cn1nc(OCc2ccc3c(c2)OCO3)c2scc(-c3ccncc3)c2c1=O` [Example 69, 7-(1,3-benzodioxol-5-ylmethoxy)-5-methyl-3-(pyridin-4-yl)thieno[2,3-d]pyridazin-4(5H)-one] here?
Answer: 100 to 200 nM

Question: And the “Rat mCl” value [1]?
Answer: + (+: 100-220 μl min^−1 mg^−1)

Question: What about the “Human mCl” value [2] of the same compound?
Answer: ++ (++: <100 μl min^−1 mg^−1)

Question: With `Cn1nc(Oc2ccc3c(c2)OCO3)c2scc(-c3ccncc3)c2c1=O` [Example 89, 7-(1,3-benzodioxol-5-yloxy)-5-methyl-3-(pyridin-4-yl)thieno[2,3-d]pyridazin-4(5H)-one] as the compound, how does the IC50 (PDE10A) read?
Answer: 200 to 500 nM

Question: And the “Rat mCl” value [1]?
Answer: + (+: 100-220 μl min^−1 mg^−1)

Question: What about the “Human mCl” value [2] of the same compound?
Answer: ++ (++: <100 μl min^−1 mg^−1)

Question: Which results are given for `Cn1nc(Oc2cccnc2)c2scc(-c3ccncc3)c2c1=O` [Example 82, 5-methyl-3-(pyridin-4-yl)-7-(pyridin-3-yloxy)thieno[2,3-d]pyridazin-4(5H)-one]?
Answer: IC50 (PDE10A): 200 to 500 nM; Rat mCl [1]: ++ (++: <100 μl min^−1 mg^−1); Human mCl [2]: ++ (++: <100 μl min^−1 mg^−1)

Question: What does the source list for `Cn1nc(-c2ccc3ncoc3c2)c2scc(-c3ccncc3)c2c1=O` [Example 97, 7-(1,3-benzoxazol-6-yl)-5-methyl-3-(pyridin-4-yl)thieno[2,3-d]pyridazin-4(5H)-one]?
Answer: IC50 (PDE10A): < 100 nM; Rat mCl [1]: ++ (++: <100 μl min^−1 mg^−1); Human mCl [2]: ++ (++: <100 μl min^−1 mg^−1)

Question: What does the source list for `CC(C)n1nc(-c2ccncc2)c2scc(-c3ccncc3)c2c1=O` [Example 135, 5-(propan-2-yl)-3,7-di(pyridin-4-yl)thieno[2,3-d]pyridazin-4(5H)-one]?
Answer: IC50 (PDE10A): 200 to 500 nM; Rat mCl [1]: + (+: 100-220 μl min^−1 mg^−1); Human mCl [2]: ++ (++: <100 μl min^−1 mg^−1)

Question: For `Cn1nc(OCc2cccc3ccoc23)c2scc(-c3ccncc3)c2c1=O` [Example 64, 7-(1-benzofuran-7-ylmethoxy)-5-methyl-3-(pyridin-4-yl)thieno[2,3-d]pyridazin-4(5H)-one], which IC50 (PDE10A) is on record?
Answer: 100 to 200 nM

Question: What about the “Rat mCl” value [1] of the same compound?
Answer: ++ (++: <100 μl min^−1 mg^−1)

Question: And the “Human mCl” value [2]?
Answer: ++ (++: <100 μl min^−1 mg^−1)

Question: With “3-[4-oxo-7-(pyridin-4-yl)-5-(2,2,2-trifluoroethyl)-4,5-dihydrothieno[2,3-d]pyridazin-3-yl]benzonitrile [Example 127]” as the compound, how does the IC50 (PDE10A) read?
Answer: < 100 nM

Question: And the “Rat mCl” value [1]?
Answer: ++ (++: <100 μl min^−1 mg^−1)

Question: What about the “Human mCl” value [2] of the same compound?
Answer: ++ (++: <100 μl min^−1 mg^−1)

Question: What does the source list for `COc1ccccc1Oc1nn(C)c(=O)c2c(-c3ccncc3)csc12.O=C(O)C(F)(F)F` [Example 84, 7-(2-methoxyphenoxy)-5-methyl-3-(pyridin-4-yl)thieno[2,3-d]pyridazin-4(5H)-one trifluoroacetate]?
Answer: IC50 (PDE10A): 100 to 200 nM; Rat mCl [1]: ∘ (∘ not avialable or >220 μl min^−1 mg^−1); Human mCl [2]: ++ (++: <100 μl min^−1 mg^−1)

Question: For `COc1cncc(Oc2nn(C)c(=O)c3c(-c4ccncc4)csc23)c1.O=C(O)C(F)(F)F.O=C(O)C(F)(F)F` [Example 88, 7-[(5-methoxypyridin-3-yl)oxy]-5-methyl-3-(pyridin-4-yl)thieno[2,3-d]pyridazin-4(5H)-one bis(trifluoroacetate)], which IC50 (PDE10A) is on record?
Answer: < 100 nM

Question: And the “Rat mCl” value [1]?
Answer: ++ (++: <100 μl min^−1 mg^−1)

Question: And the “Human mCl” value [2]?
Answer: ++ (++: <100 μl min^−1 mg^−1)

Question: Which IC50 (PDE10A) does the source give for `Cn1nc(OCc2nccs2)c2scc(-c3ccncc3)c2c1=O` [Example 58, 5-methyl-3-(pyridin-4-yl)-7-(1,3-thiazol-2-ylmethoxy)thieno[2,3-d]pyridazin-4(5H)-one] here?
Answer: < 100 nM

Question: And the “Rat mCl” value [1]?
Answer: ++ (++: <100 μl min^−1 mg^−1)

Question: What about the “Human mCl” value [2] of the same compound?
Answer: ++ (++: <100 μl min^−1 mg^−1)

Question: For `Cn1nc(-c2cccc(C#N)c2)c2scc(-c3ccncc3)c2c1=O` [Example 94, 3-[5-methyl-4-oxo-3-(pyridin-4-yl)-4,5-dihydrothieno[2,3-d]pyridazin-7-yl]benzonitrile], which IC50 (PDE10A) is on record?
Answer: 100 to 200 nM

Question: And the “Rat mCl” value [1]?
Answer: ++ (++: <100 μl min^−1 mg^−1)

Question: What about the “Human mCl” value [2] of the same compound?
Answer: ++ (++: <100 μl min^−1 mg^−1)

Question: Which IC50 (PDE10A) does the source give for `Cn1nc(-c2ccncc2)c2scc(-c3cccnc3)c2c1=O.O=C(O)C(F)(F)F` [Example 14, 5-methyl-3-(pyridin-3-yl)-7-(pyridin-4-yl)thieno[2,3-d]pyridazin-4(5H)-one bis(trifluoroacetate)] here?
Answer: 100 to 200 nM

Question: What about the “Rat mCl” value ([1]; bis(trifluoroacetate)) of the same compound?
Answer: ++ (++: <100 μl min^−1 mg^−1)

Question: And the “Human mCl” value [2]?
Answer: ++ (++: <100 μl min^−1 mg^−1)

Question: What does the source list for `Cn1nc(OCc2nc3ccccc3n2C)c2scc(-c3ccncc3)c2c1=O` [Example 70, 5-methyl-7-[(1-methyl-1H-benzimidazol-2-yl)methoxy]-3-(pyridin-4-yl)thieno[2,3-d]pyridazin-4(5H)-one]?
Answer: IC50 (PDE10A): < 100 nM; Rat mCl [1]: + (+: 100-220 μl min^−1 mg^−1); Human mCl [2]: + (+: 100-220 μl min^−1 mg^−1)

Question: For `COc1ccc(Oc2nn(C)c(=O)c3c(-c4ccncc4)csc23)cc1` [Example 86, 7-(4-methoxyphenoxy)-5-methyl-3-(pyridin-4-yl)thieno[2,3-d]pyridazin-4(5H)-one], which IC50 (PDE10A) is on record?
Answer: 200 to 500 nM

Question: And the “Rat mCl” value [1]?
Answer: + (+: 100-220 μl min^−1 mg^−1)

Question: And the “Human mCl” value [2]?
Answer: ++ (++: <100 μl min^−1 mg^−1)

Question: Which IC50 (PDE10A) does the source give for `Cn1nc(OCc2ccc(Cl)cc2)c2scc(-c3ccncc3)c2c1=O` [Example 62, 7-[(4-chlorobenzyl)oxy]-5-methyl-3-(pyridin-4-yl)thieno[2,3-d]pyridazin-4(5H)-one] here?
Answer: 200 to 500 nM

Question: And the “Rat mCl” value [1]?
Answer: ++ (++: <100 μl min^−1 mg^−1)

Question: And the “Human mCl” value [2]?
Answer: ++ (++: <100 μl min^−1 mg^−1)

Question: Which IC50 (PDE10A) does the source give for `O=c1c2c(-c3cncnc3)csc2c(-c2ccncc2)nn1CC1CC1` [Example 146, 5-(cyclopropylmethyl)-7-(pyridin-4-yl)-3-(pyrimidin-5-yl)thieno[2,3-d]pyridazin-4(5H)-one] here?
Answer: < 100 nM

Question: What about the “Rat mCl” value [1] of the same compound?
Answer: ++ (++: <100 μl min^−1 mg^−1)

Question: And the “Human mCl” value [2]?
Answer: ++ (++: <100 μl min^−1 mg^−1)
